Measured values published in patent US11883379B1, “9-flouro-dibenzo[B,G]indeno[1′, 2′:3,4]fluoreno-[1,2-D]oxonine-5, 11, 16,21-tetraone as an antimicrobial agent” (KING FAISAL UNIVERSITY, priority 2023, dated 2024).

melting point: 288 to 289 °C
Structure (SMILES): O=C1Oc2ccc(F)cc2-c2c(c3c4ccccc4c(=O)c3c3c2c(=O)c2ccccc23)C(=O)c2ccccc21 [9-fluoro-dibenzo[b,g]indeno[1′,2′:3,4]fluoreno-[1,2-d]oxonine-5,11,16,21-tetraone]
